Reference: patent US8637498B2, “Oxopiperazine-azetidine amides and oxodiazepine-azetidine amides as monoacylglycerol lipase inhibitors” (Janssen Pharmaceutica, NV, priority 2010, dated 2014)
Positions count from the first letter of the chain named. Read-outs that look alike come from different tables or passages of the source. One block for each compound: values may come before it.

What was measured:
mutant MGL = target: T1, mutant MGL (Homo sapiens, UniProt Q99685, L169S/L176S); assay: MGL ThermoFluor Assay - Mutant; type: binding
T1 construct: mut-MGLL 11-313 L179S L186S
T1 sequence (Q99685 1-303 L169S/L176S): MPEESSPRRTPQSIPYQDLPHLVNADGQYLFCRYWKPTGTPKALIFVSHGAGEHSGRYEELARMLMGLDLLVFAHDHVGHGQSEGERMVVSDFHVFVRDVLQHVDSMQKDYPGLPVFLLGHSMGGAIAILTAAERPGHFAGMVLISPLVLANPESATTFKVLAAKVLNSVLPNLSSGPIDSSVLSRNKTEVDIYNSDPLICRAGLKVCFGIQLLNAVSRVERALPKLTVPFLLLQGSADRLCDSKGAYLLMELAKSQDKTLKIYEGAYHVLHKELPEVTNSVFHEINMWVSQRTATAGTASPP
Experimental: The ThermoFluor (TF) assay is a 384-well plate-based binding assay that measures thermal stability of proteins^1,2. The experiments were carried out using instruments available from Johnson & Johnson Pharmaceutical Research & Development, LLC. TF dye used in all experiments was 1,8-ANS (Invitrogen: A-47). Final TF assay conditions used for MGL studies were 0.07 mg/ml of mutant MGL, 100 μM ANS, 200 mM NaCl, 0.001% Tween-20 in 50 mM PIPES (pH=7.0).
Screening compound plates contained 100% DMSO compound solutions at a single concentration. For follow-up concentration-response studies, compounds were arranged in a pre-dispensed plate (Greiner Bio-one: 781280), wherein compounds were serially diluted in 100% DMSO across 11 columns within a series. Columns 12 and 24 were used as DMSO reference and contained no compound. For both single and multiple compound concentration-repsonse experiments, the compound aliquots (46 nL) were robotically predispensed directly into 384-well black assay plates (Abgene: TF-0384/k) using the Hummingbird liquid handler. Following compound dispension, protein and dye solutions were added to achieve the final assay volume of 3 μL. The assay solutions were overlayed with 1 μL of silicone oil (Fluka, type DC 200: 85411) to prevent evaporation.
Bar-coded assay plates were robotically loaded onto a thermostatically controlled PCR-type thermal block and then heated from 40 to 90° C. degrees at a ramp-rate of 1° C./min for all experiments. Fluorescence was measured by continuous illumination with UV light (Hamamatsu LC6), supplied via fiber optics and filtered through a band-pass filter (380-400 nm; >6 OD cutoff). Fluorescence emission of the entire 384-well plate was detected by measuring light intensity using a CCD camera (Sensys, Roper Scientific) filtered to detect 500±25 nm, resulting in simultaneous and independent readings of all 384 wells. A single image with 20-sec exposure time was collected at each temperature, and the sum of the pixel intensity in a given area of the assay plate was recorded vs temperature and fit to standard equations to yield the Tm^1. • 1. Pantoliano, M. W., Petrella, E. C., Kwasnoski, J. D., Lobanov, V. S., Myslik, J., Graf, E., Carver, T., Asel, E., Springer, B. A., Lane, P., and Salemme, F. R. (2001) J Biomol Screen 6, 429-40. • 2. Matulis, D., Kranz, J. K., Salemme, F. R., and Todd, M. J. (2005) Biochemistry 44, 5258-66.
The Kd values for compounds of Formula (Ia) and (Ib) were determined from a fit of the equation to the concentration-response plot of the fractional activity as a function of Tm. For some experiments, quantitative NMR spectroscopy (qNMR) was used to measure concentration of the initial 100% DMSO compound solutions and, using the same fitting method, qKd values were determined.

[1] = target: T2, purified mutant MGL (mut-MGLL 11-313 L179S L186S) (Homo sapiens, UniProt Q99685, L169S/L176S); assay: MGL Enzyme Activity Assay (mutant MGL, 4MU-B substrate); type: biochemical; settings: mutant MGL 5 nM, 4MU-B 10 μM, 37° C.; read-out: MGL mutant inh IC50
T2 construct: mut-MGLL 11-313 L179S L186S
T2 sequence (Q99685 1-303 L169S/L176S): T1 sequence (Q99685 1-303 L169S/L176S)
Experimental: (§1) All rate-based assays were performed in black 384-well polypropylene PCR microplates (Abgene) in a total volume of 30 μL. Substrate 4-methylumbelliferyl butyrate (4MU-B; Sigma) and either purified mutant MGL (mut-MGLL 11-313 L179S L186S) or purified wild type MGL (wt-MGLL 6H-11-313) were diluted separately into 20 mM PIPES buffer (pH=7.0), containing 150 mM NaCl and 0.001% Tween 20. Compounds of Formula (Ia) and (Ib) were pre-dispensed (50 nL) into the assay plate using a Cartesian Hummingbird prior to adding 4MU-B (25 μL of 1.2× solution to a final concentration of 10 μM) followed by enzyme (5 μL of a 6× solution to a final concentration of 5 nM) to initiate the reaction. Final compound concentrations ranged from 17 to 0.0003 μM. The fluorescence change due to 4MU-B cleavage was monitored with excitation and emission wavelengths of 335 and 440 nm, respectively, and a bandwidth of 10 nm (Safire^2, Tecan) at 37° C. for 5 min.
(§2) The IC50 values for compounds of Formula (Ia) or (Ib) were determined using Excel from a fit of the equation to the concentration-response plot of the fractional activity as a function of inhibitor concentration.

MGL = target: T3, MGL (Rattus norvegicus, UniProt Q8R431); assay: 2-AG Accumulation Assay in rat brain homogenate; type: biochemical; settings: compound @1 μM, 2-AG accumulation as percent of vehicle
T3 construct: one g rat brain was homogenized; from tissue; host or cells: rat brain homogenate
T3 sequence (Q8R431 1-303): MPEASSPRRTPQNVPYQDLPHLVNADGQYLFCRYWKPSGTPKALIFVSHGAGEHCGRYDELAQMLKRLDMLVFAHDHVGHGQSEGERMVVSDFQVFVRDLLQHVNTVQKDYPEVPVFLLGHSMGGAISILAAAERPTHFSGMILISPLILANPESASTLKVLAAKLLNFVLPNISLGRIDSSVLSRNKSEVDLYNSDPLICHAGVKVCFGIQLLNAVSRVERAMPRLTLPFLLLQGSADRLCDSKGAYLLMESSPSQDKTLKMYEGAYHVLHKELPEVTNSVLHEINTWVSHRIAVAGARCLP
Experimental: After a 15-min incubation time at 37° C., CaCl2 (final concentration=10 mM) was added and then incubated for 15 min at 37° C. in a total volume of 5 mL. The reactions were stopped with 6 mL organic solvent extraction solution of 2:1 chloroform/methanol. Accumulated 2-AG in the organic phase was measured by a HPLC/MS method, according to the following equation: percent vehicle=(2-AG accumulation in the presence of compound/2-AG accumulation in vehicle)×100.

[2] = target: T4, purified wild type MGL (wt-MGLL 6H-11-313) (Homo sapiens, UniProt Q99685); assay: MGL Enzyme Activity Assay (wild type MGL, 4MU-B substrate); type: biochemical; settings: wild type MGL 5 nM, 4MU-B 10 μM, 37° C.; read-out: MGL wild type inh IC50
T4 construct: wt-MGLL 6H-11-313; 6H (hexahistidine) (N)
T4 sequence (Q99685 1-303): T1 sequence (Q99685 1-303 L169S/L176S) with S169L, S176L
Experimental: as §1, §2

[3] = mutant MGL 0.07 mg/ml, 1,8-ANS dye, read-out: MGL mutant ThermoFluor Kd
[4] = mutant MGL, compound concentration measured by qNMR, read-out: MGL mutant ThermoFluor qKd (using qNMR conc.)

Compound: O=C(c1ccc(-c2ccccc2)cc1)N1CC(N2CCN(c3ccccc3)C(=O)C2)C1 [Cpd 2, 4-(1-([1,1′-biphenyl]-4-carbonyl)azetidin-3-yl)-1-phenylpiperazin-2-one]
- Kd (mutant MGL; [3]): 19700 nM
- IC50 [1]: 4240 nM

Compound: O=C(c1ccc2c(ccn2-c2ccc(F)cc2)c1)N1CC(N2CCN(c3nccs3)C(=O)C2)C1 [Cpd 5, 4-(1-{[1-(4-Fluorophenyl)-1H-indol-5-yl]carbonyl}azetidin-3-yl)-1-(1,3-thiazol-2-yl)piperazin-2-one]
- Kd (mutant MGL; [4]): 171 nM
- Rat Brain 2AG % VehCntrl (%) @1 μM (MGL): 316%
- IC50 [2]: 10 nM

Compound: O=C(c1ccc(Cc2ccccc2)cc1)N1CC(N2CCN(c3ccccc3)C(=O)C2)C1 [Cpd 1, 4-(1-(4-benzylbenzoyl)azetidin-3-yl)-1-phenylpiperazin-2-one]
- Kd (mutant MGL; [3]): 3330 nM
- IC50 [1]: 5280 nM

Compound: O=C(c1ccc2c(ccn2-c2ccc(C(F)(F)F)cc2)c1)N1CC(N2CCN(c3ncccn3)C(=O)C2)C1 [Cpd 3, 1-Pyrimidin-2-yl-4-[1-({1-[4-(trifluoromethyl)phenyl]-1H-indol-5-yl}carbonyl)azetidin-3-yl]piperazin-2-one]
- Kd (mutant MGL; [3]): 39.8 nM
- Rat Brain 2AG % VehCntrl (%) @1 μM (MGL): 418%
- IC50 [2]: 6 nM

The next lines start with the values.

- Kd (mutant MGL; [4]): 621 nM
- Rat Brain 2AG % VehCntrl (%) @1 μM (MGL): 302%
- IC50 [2]: 29 nM
Compound: O=C(c1ccc2c(ccn2-c2ccc(F)cc2)c1)N1CC(N2CCN(c3cscn3)C(=O)C2)C1 [Cpd 6, 4-(1-{[1-(4-Fluorophenyl)-1H-indol-5-yl]carbonyl}azetidin-3-yl)-1-(1,3-thiazol-4-yl)piperazin-2-one]

- Kd (mutant MGL; [3]): 433 nM
- Rat Brain 2AG % VehCntrl (%) @1 μM (MGL): 155%
- IC50 [2]: 37.9 nM
Compound: O=C(c1ccc2c(ccn2-c2ccc(C(F)(F)F)cc2)c1)N1CC(N2CCN(c3ncccn3)CC2=O)C1 [Cpd 24, 4-Pyrimidin-2-yl-1-[1-({1-[4-(trifluoromethyl)phenyl]-1H-indol-5-yl}carbonyl)azetidin-3-yl]piperazin-2-one]

- Kd (mutant MGL; [4]): 186 nM
- Rat Brain 2AG % VehCntrl (%) @1 μM (MGL): 155%
- IC50 [2]: 67.2 nM
Compound: O=C(c1sc2cc(C(F)(F)F)ccc2c1Cl)N1CC(N2CCN(c3cscn3)C(=O)C2)C1 [Cpd 7, 4-(1-{[3-Chloro-6-(trifluoromethyl)-1-benzothiophen-2-yl]carbonyl}azetidin-3-yl)-1-(1,3-thiazol-4-yl)piperazin-2-one]
